In patent US20230270881A1, “ONCOGENIC TRIM37 IS A TARGETABLE EPIGENETIC DRIVER OF METASTASIS AND LINKS CHEMORESISTANCE AND METASTATIC FATE IN TRIPLE-NEGATIVE BREAST CANCER” (University of Virginia Patent Foundation, priority 2020, published 2023):

B1: tripartite motif-containing protein 37 (TRIM37) (enzyme)
chain: MDEQSVESIAEVFRCFICMEKLRDARLCPHCSKLCCFSCIRRWLTEQRAQCPHCRAPLQLRELVNCRWAEEVTQQLDTLQLCSLTKHEENEKDKCENHHEKLSVFCWTCKKCICHQCALWGGMHGGHTFKPLAEIYEQHVTKVNEEVAKLRRRLMELISLVQEVERNVEAVRNAKDERVREIRNAVEMMIARLDTQLKNKLITLMGQKTSLTQETELLESLLQEVEHQLRSCSKSELISKSSEILMMFQQVHRKPMASFVTTPVPPDFTSELVPSYDSATFVLENFSTLRQRADPVYSPPLQVSGLCWRLKVYPDGNGVVRGYYLSVFLELSAGLPETSKYEYRVEMVHQSCNDPTKNIIREFASDFEVGECWGYNRFFRLDLLANEGYLNPQNDTVILRFQVRSPTFFQKSRDQHWYITQLEAAQTSYIQQINNLKERLTIELSRTQKSRDLSPPDNHLSPQNDDALETRAKKSACSDMLLEGGPTTASVREAKEDEEDEEKIQNEDYHHELSDGDLDLDLVYEDEVNQLDGSSSSASSTATSNTEENDIDEETMSGENDVEYNNMELEEGELMEDAAAAGPAGSSHGYVGSSSRISRRTHLCSAATSSLLDIDPLILIHLLDLKDRSSIENLWGLQPRPPASLLQPTASYSRKDKDQRKQQAMWRVPSDLKMLKRLKTQMAEVRCMKTDVKNTLSEIKSSSAASGDMQTSLFSADQAALAACGTENSGRLQDLGMELLAKSSVANCYIRNSTNKKSNSPKPARSSVAGSLSLRRAVDPGENSRSKGDCQTLSEGSPGSSQSGSRHSSPRALIHGSIGDILPKTEDRQCKALDSDAVVVAVFSGLPAVEKRRKMVTLGANAKGGHLEGLQMTDLENNSETGELQPVLPEGASAAPEEGMSSDSDIECDTENEEQEEHTSVGGFHDSFMVMTQPPDEDTHSSFPDGEQIGPEDLSFNTDENSGR
notes: Endogenous TRIM37 in extracts of human TNBC cell lines (MDA MB 468 nuclear extract for co-immunoprecipitation, HCC1806 whole cell extract for sucrose gradient)
B2: MRE11 (other, human, UniProt P49959 2-708, looked up)
chain: STADALDDENTFKILVATDIHLGFMEKDAVRGNDTFVTLDEILRLAQENEVDFILLGGDLFHENKPSRKTLHTCLELLRKYCMGDRPVQFEILSDQSVNFGFSKFPWVNYQDGNLNISIPVFSIHGNHDDPTGADALCALDILSCAGFVNHFGRSMSVEKIDISPVLLQKGSTKIALYGLGSIPDERLYRMFVNKKVTMLRPKEDENSWFNLFVIHQNRSKHGSTNFIPEQFLDDFIDLVIWGHEHECKIAPTKNEQQLFYISQPGSSVVTSLSPGEAVKKHVGLLRIKGRKMNMHKIPLHTVRQFFMEDIVLANHPDIFNPDNPKVTQAIQSFCLEKIEEMLENAERERLGNSHQPEKPLVRLRVDYSGGFEPFSVLRFSQKFVDRVANPKDIIHFFRHREQKEKTGEEINFGKLITKPSEGTTLRVEDLVKQYFQTAEKNVQLSLLTERGMGEAVQEFVDKEEKDAIEELVKYQLEKTQRFLKERHIDALEDKIDEEVRRFRETRQKNTNEEDDEVREAMTRARALRSQSEESASAFSADDLMSIDLAEQMANDSDDSISAATNKGRGRGRGRRGGRGQNSASRGGSQRGRADTGLETSTRSRNSKTAVSASRNMSIIDAFKSTRQQPSRNVTTKNYSEVIEVDESDVEEDIFPTTSKTDQRWSSTSSSKIMSQSQVSKGVDFESSEDDDDDPFMNTSSLRRNRR
notes: Only co-sedimentation with TRIM37 is reported

Tests used:
[1] = tested on: MDA-MB-468 cells; assay: Chemical inhibitor treatment with Dox, qRT-PCR of TRIM37; type: cell-based, human; conditions: in combination with Dox
Description: Quantitative RT-PCR (qRT-PCR). Total RNA was isolated and reverse transcribed using Superscript II Reverse Transcriptase (Invitrogen). Gene expression was normalized to Gapdh. Controls lacking reverse transcriptase were carried out in parallel to rule out the possibility of DNA contamination. Each sample was analyzed at least two independent times and the results from at least three different biological triplicates are presented.
(§1) Chemical inhibitor treatment. MDA-MB-468 cells were treated for 24 hrs with 10 µM Dox and small molecule inhibitors at the following concentrations: 10 µM KU000553 (Cayman Chemical), 50 µM AG490 (Cayman Chemical), and 40 µM HLM006474 (Sigma-Aldrich) for 24 hrs.

[2] = tested on: TRIM37; assay: Directed-ChIP assays; type: cell-based, human; conditions: MDA MB 468 cells, in combination with Dox
Description: Directed-ChIP assays. ChIP assays were performed as described previously (Bhatnagar et al., 2014) using cell extracts prepared 1 day after Cas9 transduction or inhibitor treatment, and antibodies against BMI1 (Abcam), H2Aub (Cell Signaling Technology), TRIM37 (Abcam), STAT1 (Cell Signaling Technology), STAT3 (Cell Signaling Technology), E2F1 (Cell Signaling Technology), and as a negative control, IgG. Each ChIP experiment was carried out at least three independent times and the results from at least three biological experiments, with technical duplicates, are shown.
as §1

[3] = tested on: TRIM37; assay: Immunoblotting of TRIM37 in treated cells; type: cell-based, human; conditions: TNBC cells
Description: Immunoblotting. Cell extracts were prepared by lysing cell pellet in RIPA buffer supplemented with 1 mM sodium ortho-vanadate and 10 mM PMSF. To prepare protein extract from mouse tissue, it was homogenized in lysis buffer (1% SDS, 1 mM sodium ortho-vanadate, 10 mM Tris pH 7.4 and protease inhibitor). Immunoblots were probed using antibodies against TRIM37 (Abcam), PARP (Cell Signaling Technology), p21 (Cell Signaling Technology), γ-ph-H2AX (Cell Signaling Technology), RAD51C (Invitrogen), ph-ATM (Cell Signaling Technology), ph-STAT1 (Cell Signaling Technology), ph-STAT3 (Cell Signaling Technology), ph-STAT5 (Cell Signaling Technology), BIM (Abcam), FOLR1 (R&D) and α-tubulin (Invitrogen).

[4] = target: T1, RAD50 (human, UniProt Q92878 1-1312); assay: sucrose gradient sedimentation of HCC1806 whole cell extract, immunoblot of fractions
T1 construct: Only co-sedimentation with TRIM37 is reported
T1 sequence (looked up): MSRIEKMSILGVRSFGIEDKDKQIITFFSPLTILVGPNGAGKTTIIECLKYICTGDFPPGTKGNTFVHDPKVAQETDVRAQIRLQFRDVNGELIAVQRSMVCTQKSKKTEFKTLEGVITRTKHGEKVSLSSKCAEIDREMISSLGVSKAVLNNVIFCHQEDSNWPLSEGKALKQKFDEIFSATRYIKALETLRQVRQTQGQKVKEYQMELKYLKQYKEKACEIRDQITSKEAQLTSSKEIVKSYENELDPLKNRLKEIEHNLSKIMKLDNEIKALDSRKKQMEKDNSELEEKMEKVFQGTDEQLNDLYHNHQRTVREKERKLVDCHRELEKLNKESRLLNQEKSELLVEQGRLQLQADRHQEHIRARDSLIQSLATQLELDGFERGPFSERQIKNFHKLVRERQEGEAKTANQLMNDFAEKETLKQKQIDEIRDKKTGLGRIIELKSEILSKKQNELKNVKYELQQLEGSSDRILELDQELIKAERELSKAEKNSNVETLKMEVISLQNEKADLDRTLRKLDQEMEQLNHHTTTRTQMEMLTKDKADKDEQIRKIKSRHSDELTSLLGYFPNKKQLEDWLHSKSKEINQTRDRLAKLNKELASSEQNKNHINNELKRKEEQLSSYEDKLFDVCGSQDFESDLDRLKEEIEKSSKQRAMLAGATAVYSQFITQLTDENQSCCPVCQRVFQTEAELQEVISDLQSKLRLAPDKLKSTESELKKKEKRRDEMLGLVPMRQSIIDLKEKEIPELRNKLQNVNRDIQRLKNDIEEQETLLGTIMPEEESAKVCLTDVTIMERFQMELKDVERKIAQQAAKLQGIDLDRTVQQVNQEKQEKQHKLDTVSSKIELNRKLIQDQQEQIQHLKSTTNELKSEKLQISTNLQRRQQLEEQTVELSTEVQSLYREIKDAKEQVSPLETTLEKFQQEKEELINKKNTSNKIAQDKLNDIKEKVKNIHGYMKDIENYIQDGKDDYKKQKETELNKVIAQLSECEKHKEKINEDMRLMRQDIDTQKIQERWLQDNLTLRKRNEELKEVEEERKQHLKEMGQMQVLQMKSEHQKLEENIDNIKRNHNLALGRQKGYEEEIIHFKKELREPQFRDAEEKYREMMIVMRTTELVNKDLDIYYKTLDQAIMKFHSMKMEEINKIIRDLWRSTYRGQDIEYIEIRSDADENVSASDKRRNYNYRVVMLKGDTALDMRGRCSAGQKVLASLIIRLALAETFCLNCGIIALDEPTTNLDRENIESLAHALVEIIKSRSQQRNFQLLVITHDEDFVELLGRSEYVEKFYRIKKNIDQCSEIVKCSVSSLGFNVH
Description: (§2) Sucrose gradient fractionation. Sucrose gradient sedimentation analysis was performed as described previously (Bhatnagar et al., 2014). Briefly, 10-40% gradients were formed by layering 200 µl NEB1 buffer containing 10%, 20%, 30% or 40% sucrose in a 13 x 51 mm centrifuge tube (Beckman) and allowed to equilibrate at room temperature for 2 hrs. Gradients were chilled, loaded with […] HCC1806 extract (adjusted to a volume of 200 µl) or 200 µl molecular weight markers (Sigma MW-GF-1000), and centrifuged in a Beckman SW 55 Ti rotor at 214,000 g for 14 hrs. Twenty-five fractions of 200 µl were collected. For the markers, 20 µl of each fraction was electrophoresed and Coomassie stained.

[5] = target: B1; assay: as above
Description: as §2

N#C/C(=C/c1ccc(O)c(O)c1)C(=O)NCc1ccccc1 [AG490]
TRIM37 upregulation following Dox-treatment (qRT-PCR) [1]: blocks TRIM37 upregulation | Dox-induced STAT1, STAT3, and E2F1 recruitment to TRIM37 (ChIP) [2]: substantially decreased

CCOc1ccc(C(Nc2ccccn2)c2ccc3ccc(C)nc3c2O)cc1C (stereo not drawn) [HLM006474]
TRIM37 upregulation following Dox-treatment (qRT-PCR) [1]: blocks TRIM37 upregulation | Dox-induced STAT1, STAT3, and E2F1 recruitment to TRIM37 (ChIP) [2]: substantially decreased

O=c1cc(-c2cccc3c2Sc2ccccc2S3)oc(N2CCOCC2)c1 [KU000553]
TRIM37 upregulation following Dox-treatment (qRT-PCR) [1]: blocks TRIM37 upregulation

N.N.[Cl][Pt][Cl] [cisplatin]
TRIM37 expression post-treatment relative to DMSO [3]: increased TRIM37 expression

COc1cccc2c1C(=O)c1c(O)c3c(c(O)c1C2=O)C[C@@](O)(C(C)=O)C[C@@H]3O[C@H]1C[C@H](N)[C@H](O)[C@H](C)O1 [daunorubicin]
TRIM37 expression post-treatment relative to DMSO [3]: increased TRIM37 expression

B1
binding result [4]: binds

B2
binding result [5]: binds
